Results reported in ChEMBL document CHEMBL1201862, “PubChem BioAssay data set” (2004).
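In this assay, cells in 96-well plates receive the compound at five concentrations for 48 hours. Endpoints are linearly interpolated between the surrounding concentrations. Here, GI50 denotes the concentration required for 50% inhibition of growth.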 The source made the active and inactive calls. No stated cut-off is given here; in the data, active = GI50 up to about 1.1 µM and inactive = higher.

Experiments:
Assay in all cases: NCI anticancer screen, dose series, 48 h
HCC 2998 = tested on: HCC 2998
M14 = tested on: M14
NCI-H226 = tested on: NCI-H226
RXF 393 = tested on: RXF 393
SR = tested on: SR
COLO 205 = tested on: COLO 205
MDA-N = tested on: MDA-N
OVCAR-8 = tested on: OVCAR-8
NCI-H460 = tested on: NCI-H460
MDA-MB-435 = tested on: MDA-MB-435
T47D = tested on: T47D
HCT-116 = tested on: HCT-116
786-0 = tested on: 786-0
U-251 = tested on: U-251
NCI-H522 = tested on: NCI-H522
KM12 = tested on: KM12
SF-295 = tested on: SF-295
SF-268 = tested on: SF-268
RPMI-8226 = tested on: RPMI-8226
SNB-19 = tested on: SNB-19

Measured: GI50

CC1=C(O)C(=O)c2ccccc2C1=O
inactive: HCC 2998 > 100 µM | M14 16.9 µM | NCI-H226 > 100 µM | RXF 393 34.8 µM | SR 88.5 µM | COLO 205 > 100 µM | MDA-N 46.7 µM | OVCAR-8 > 100 µM | NCI-H460 43.6 µM | MDA-MB-435 52.6 µM | T47D > 100 µM | HCT-116 > 100 µM | 786-0 71.9 µM | U-251 34 µM | NCI-H522 47.9 µM | KM12 23 µM | SF-295 49.4 µM | SF-268 94.6 µM | RPMI-8226 18.6 µM | SNB-19 > 100 µM

COC(=O)C1(C)CCCC2(C)c3cc(OC)ccc3C(=O)C(Br)C12 (stereo not given)
inactive: HCC 2998 > 10 µM | M14 3.35 µM | NCI-H226 > 10 µM | RXF 393 9.23 µM | SR 2.76 µM | COLO 205 2.63 µM | MDA-N 3.81 µM | OVCAR-8 1.99 µM | NCI-H460 > 10 µM | MDA-MB-435 4.19 µM | T47D > 10 µM | HCT-116 2.79 µM | 786-0 1.84 µM | U-251 > 10 µM | NCI-H522 2.86 µM | KM12 > 10 µM | SF-295 > 10 µM | SF-268 > 10 µM | RPMI-8226 2.24 µM | SNB-19 > 10 µM

O=[N+]([O-])c1ccc(N/N=C/CC(O)(C(F)(F)F)C(F)(F)F)c([N+](=O)[O-])c1
inactive: HCC 2998 5.32 µM | M14 > 10 µM | NCI-H226 3.72 µM | RXF 393 5.35 µM | SR 5.06 µM | COLO 205 3.67 µM | MDA-N 5.25 µM | OVCAR-8 4.23 µM | NCI-H460 2.97 µM | MDA-MB-435 4.13 µM | T47D 3.21 µM | HCT-116 3.03 µM | 786-0 5.04 µM | U-251 3.48 µM | NCI-H522 3.21 µM | KM12 4.82 µM | SF-295 3.58 µM | SF-268 4.26 µM | RPMI-8226 2.76 µM | SNB-19 5.04 µM

CC1(C)OCC(C2OC3OC(C)(C)OC3C2N)O1 (stereo not given)
inactive: HCC 2998 > 100 µM | M14 > 100 µM | NCI-H226 > 100 µM | RXF 393 > 100 µM | SR > 100 µM | COLO 205 > 100 µM | MDA-N > 100 µM | OVCAR-8 > 100 µM | NCI-H460 > 100 µM | MDA-MB-435 > 100 µM | T47D > 100 µM | HCT-116 > 100 µM | 786-0 > 100 µM | U-251 > 100 µM | NCI-H522 > 100 µM | KM12 > 100 µM | SF-295 > 100 µM | SF-268 > 100 µM | RPMI-8226 > 100 µM | SNB-19 > 100 µM

O=C(O)C(F)(OC(F)(F)C(F)(OC(F)(F)C(F)(F)C(F)(F)F)C(F)(F)F)C(F)(F)F (stereo not given)
inactive: HCC 2998 > 100 µM | M14 > 100 µM | NCI-H226 > 100 µM | RXF 393 > 100 µM | SR > 100 µM | COLO 205 > 100 µM | MDA-N > 100 µM | OVCAR-8 > 100 µM | NCI-H460 > 100 µM | MDA-MB-435 > 100 µM | T47D > 100 µM | HCT-116 > 100 µM | 786-0 > 100 µM | U-251 > 100 µM | NCI-H522 > 100 µM | KM12 > 100 µM | SF-295 > 100 µM | SF-268 > 100 µM | RPMI-8226 > 100 µM | SNB-19 > 100 µM

CC1=C/C(=N/N2C(=O)/C(=C/c3ccc(Cl)cc3)N=C2c2ccccc2)CC(C)(C)C1
inactive: HCC 2998 > 100 µM | M14 > 100 µM | NCI-H226 90.2 µM | RXF 393 91.6 µM | SR 31 µM | COLO 205 > 100 µM | MDA-N 67.6 µM | OVCAR-8 32.7 µM | NCI-H460 > 100 µM | MDA-MB-435 51.3 µM | T47D 85.9 µM | HCT-116 91.8 µM | 786-0 57 µM | U-251 21.5 µM | NCI-H522 30 µM | KM12 51.1 µM | SF-295 51.9 µM | SF-268 73.3 µM | RPMI-8226 20.9 µM | SNB-19 65.5 µM

C1CSC(Sc2nc(SC3=NCCS3)nc(SC3=NCCS3)n2)=N1
inactive: HCC 2998 > 100 µM | M14 > 100 µM | NCI-H226 > 100 µM | RXF 393 > 100 µM | SR > 100 µM | COLO 205 > 100 µM | MDA-N > 100 µM | OVCAR-8 > 100 µM | NCI-H460 > 100 µM | MDA-MB-435 > 100 µM | T47D > 100 µM | HCT-116 > 100 µM | 786-0 > 100 µM | U-251 > 100 µM | NCI-H522 35.5 µM | KM12 > 100 µM | SF-295 > 100 µM | SF-268 > 100 µM | RPMI-8226 > 100 µM | SNB-19 > 100 µM

Cn1c(=O)c2c(nc3[nH]c(=O)c(Br)cn32)n(C)c1=O
inactive: HCC 2998 > 100 µM | M14 > 100 µM | NCI-H226 > 100 µM | RXF 393 > 100 µM | SR > 100 µM | COLO 205 > 100 µM | MDA-N > 100 µM | OVCAR-8 > 100 µM | NCI-H460 > 100 µM | MDA-MB-435 > 100 µM | T47D > 100 µM | HCT-116 > 100 µM | 786-0 > 100 µM | U-251 > 100 µM | NCI-H522 > 100 µM | KM12 > 100 µM | SF-295 > 100 µM | SF-268 > 100 µM | RPMI-8226 > 100 µM | SNB-19 > 100 µM

CC(=O)Nc1ccc(CNc2cc(=O)n(C)c(=O)[nH]2)cc1
inactive: HCC 2998 > 100 µM | M14 > 100 µM | NCI-H226 > 100 µM | RXF 393 > 100 µM | SR > 100 µM | COLO 205 > 100 µM | MDA-N > 100 µM | OVCAR-8 > 100 µM | NCI-H460 > 100 µM | MDA-MB-435 > 100 µM | T47D > 100 µM | HCT-116 > 100 µM | 786-0 > 100 µM | U-251 > 100 µM | NCI-H522 > 100 µM | KM12 > 100 µM | SF-295 > 100 µM | SF-268 > 100 µM | RPMI-8226 > 100 µM | SNB-19 > 100 µM

CN(c1cn(C2CC[C@@H](CO)O2)c(=O)[nH]c1=O)C1CCCCC1 (stereo not given in full)
inactive: HCC 2998 > 100 µM | M14 > 100 µM | NCI-H226 > 100 µM | RXF 393 > 100 µM | SR > 100 µM | COLO 205 > 100 µM | MDA-N > 100 µM | OVCAR-8 > 100 µM | NCI-H460 > 100 µM | MDA-MB-435 > 100 µM | T47D > 100 µM | HCT-116 > 100 µM | 786-0 > 100 µM | U-251 > 100 µM | NCI-H522 > 100 µM | KM12 > 100 µM | SF-295 > 100 µM | SF-268 > 100 µM | RPMI-8226 > 100 µM | SNB-19 > 100 µM
